Values of other authors, collected in publication PMC12525602, “Identification of Selective α-Glucosidase Inhibitors via Virtual Screening with Machine Learning” (Molecules, 2025).

Test system: α-glucosidase
Settings: 300-compound dataset of reported inhibitors and ineffective compounds, Table S4; cited from earlier work
In the case of COc1cc(-c2oc3cc(O)cc(O)c3c(=O)c2O[C@@H]2O[C@H](CO)[C@@H](O)[C@H](O)[C@H]2O)ccc1O [compound 1, COC1=C(O)C=CC(C2=C(O[C@H]3[C@H](O)[C@@H](O)[C@H](O)[C@@H](CO)O3)C(C4=C(O)C=C(O)C=C4O2)=O)=C1], the “activity (label in modeling dataset)” value is listed as 0.

Same assay, conditions: Table S5 modeling dataset; activity label 1 = active, 0 = inactive; cited from earlier work
For O=C(c1ccccc1)c1ccc2nc(-c3ccc(O)cc3)[nH]c2c1 [compound 135], the activity is listed as 0.
In the case of CC1CCCN(c2ccc(/C=N/Nc3nc(-c4ccccc4)cs3)cc2)C1 (stereo not shown) [compound 119], the activity is given as 0.
For C[n+]1cccc(C(=O)[O-])c1 [compound 133], the activity is given as 0.
For N#Cc1c(-c2ccc(Cl)cc2)cc(-c2ccc([N+](=O)[O-])cc2)c(C#N)c1N [compound 103], the activity is listed as 0.
For N#Cc1ccc2[nH]c(-c3nnc(Nc4cccc(F)c4)s3)cc2c1 [compound 124], the activity is listed as 0.
In the case of O=C(c1ccccc1)c1ccc2nc(-c3ccc(F)cc3)[nH]c2c1 [compound 95], the activity is given as 0.

Same assay, conditions: activity label in the 300-compound modeling dataset (Table S5); 1 = active, 0 = inactive; cited from earlier work
For COc1cccc(C(=O)C2C(O)c3ccccc3S(=O)(=O)N2CC(=O)Nc2ccccc2Br)c1 (stereo not shown) [compound 187], the activity is given as 1.
For N#Cc1ccc2[nH]c(-c3nnc(Nc4ccc(Cl)c(Cl)c4)s3)cc2c1 [compound 193], the activity is listed as 1.
For COc1ccc([C@@H]2CC(=O)c3c(O)cc(O[C@@H]4O[C@H](CO[C@@H]5O[C@@H](C)[C@H](O)[C@@H](O)[C@H]5O)[C@@H](O)[C@H](O)[C@H]4O)cc3O2)cc1O [compound 185], the activity is listed as 1.
In the case of COc1cc(/C=N/N=C2\C(=O)Nc3ccccc32)ccc1OCc1cn(Cc2ccccc2)nn1 [compound 224], the activity is given as 1.
For Cc1ccc(-c2cc(C(F)(F)F)nn2-c2ccc(S(=O)(=O)NC(=O)c3ccccc3[N+](=O)[O-])cc2)cc1 [compound 201], the activity is given as 1.
In the case of Cc1ccc(-c2cc(C(F)(F)F)nn2-c2ccc(S(=O)(=O)NC(=O)c3cccc([N+](=O)[O-])c3)cc2)cc1 [compound 200], the activity is given as 1.
In the case of O=[N+]([O-])c1ccc(-c2nnc(/N=C(/CSc3nnc4c(n3)[nH]c3ccccc34)c3ccc(-c4ccccc4)cc3)s2)cc1 [compound 230], the activity is listed as 1.
For C=C(C)[C@@H]1CCC2=Cc3nc(NC(=O)c4ccc(Cl)cc4)sc3[C@@H](C)[C@]2(C)C1 [compound 220], the activity is given as 1.

Same assay, conditions: activity label of the 300-compound modeling dataset, Table S5; cited from earlier work
For COc1cc(-c2nc3ccccc3[nH]2)ccc1OCC(=O)Nc1ccc(F)cc1 [compound 261], the activity is given as 1.
For COc1cc(/C=N/N=C2\C(=O)Nc3ccccc32)ccc1OCc1cn(Cc2ccc(C)cc2)nn1 [compound 253], the activity is listed as 1.
In the case of O=C(COc1c(I)cc(Cl)c2cccnc12)c1ccc(Cl)cc1 [compound 241], the activity is listed as 1.
In the case of O=C(COc1c(I)cc(Cl)c2cccnc12)c1cccc(Br)c1 [compound 268], the activity is given as 1.
For N#Cc1cccc(N/N=C/C2CC(=O)c3ccccc3O2)c1 (stereo not shown) [compound 251], the activity is given as 1.
In the case of O=C1Nc2ccccc2/C1=N/N=C/c1ccc(OCc2cn(Cc3ccc(F)cc3)nn2)cc1 [compound 271], the activity is given as 1.
For O=C1C(=NN=Cc2ccc(OCc3cn(Cc4ccc(F)cc4)nn3)cc2)c2ccccc2N1c1ccc(Br)cc1 [compound 262], the activity is listed as 1.
For O=C(COc1c(I)cc(Cl)c2cccnc12)c1ccc(Br)cc1 [compound 256], the activity is listed as 1.

Same assay, conditions: activity label of the modeling dataset (Table S5), α-glucosidase; 1 = active, 0 = inactive; cited from earlier work
For N#Cc1ccc2[nH]c(-c3nnc(Nc4ccccc4Br)s3)cc2c1 [compound 11], the activity is given as 0.
For COc1cc(-c2oc3cc(O)cc(O)c3c(=O)c2O[C@@H]2O[C@H](CO)[C@@H](O)[C@H](O)[C@H]2O)ccc1O [compound 1, COC1=C(O)C=CC(C2=C(O[C@H]3[C@H](O)[C@@H](O)[C@H](O)[C@@H](CO)O3)C(C4=C(O)C=C(O)C=C4O2)=O)=C1], the activity is listed as 0.
For N#Cc1c(-c2cccnc2)cc(-c2ccsc2)c(C#N)c1N [compound 37], the activity is given as 0.
For N#Cc1c(-c2cccnc2)cc(-c2ccccn2)c(C#N)c1N [compound 42], the activity is given as 0.
In the case of Cc1ccc(-c2cc(-c3ccc([N+](=O)[O-])cc3)c(C#N)c(N)c2C#N)cc1 [compound 26], the activity is given as 0.
In the case of CCCCCCCCCCCCCCCCCC(N)=O [compound 27], the activity is listed as 0.
In the case of N[C@@H](Cc1ccccc1)C(=O)O [compound 39], the activity is listed as 0.
In the case of N#Cc1c(-c2cccnc2)cc(-c2ccco2)c(C#N)c1N [compound 19], the activity is given as 0.

Same assay, conditions: activity label of the modeling dataset, Table S5 (1 = active, 0 = inactive); cited from earlier work
For CC1CCN(c2ccc(/C=N/Nc3nc(-c4ccc(Cl)cc4)cs3)cc2)CC1 [compound 83], the activity is given as 0.
For CC1OC(Oc2cc(-c3oc4cc(O)cc(O)c4c(=O)c3O)cc(O)c2O)C(O)C(O)C1O (stereo not shown) [compound 76], the activity is given as 0.
For c1ccc(Cn2cc(CSc3nnc(COc4cccc5cccnc45)o3)nn2)cc1 [compound 54], the activity is listed as 0.
For Cc1ccc(-c2csc(N/N=C/c3ccc(N4CCCC(C)C4)cc3)n2)cc1 (stereo not shown) [compound 68], the activity is given as 0.
For N#Cc1c(-c2ccc([N+](=O)[O-])cc2)cc(-c2cccc(Br)c2)c(C#N)c1N [compound 48], the activity is listed as 0.
In the case of CC1CCN(c2ccc(/C=N/Nc3nc(-c4ccc(F)cc4F)cs3)cc2)CC1 [compound 84], the activity is listed as 0.
For CC1CCCN(c2ccc(/C=N/Nc3nc(-c4ccc(Br)cc4)cs3)cc2)C1 (stereo not shown) [compound 70], the activity is listed as 0.
In the case of C=CCSc1nnc(COc2cccc3cccnc23)o1 [compound 85], the activity is given as 0.
In the case of O=[N+]([O-])c1ccc(CSc2nnc(COc3cccc4cccnc34)o2)cc1 [compound 89], the activity is given as 0.
For Cc1cccc(C)c1-n1cc(CSc2nnc(COc3cccc4cccnc34)o2)nn1 [compound 58], the activity is given as 0.
For Fc1ccc(Cn2cc(CSc3nnc(COc4cccc5cccnc45)o3)nn2)cc1 [compound 69], the activity is given as 0.

Same assay, conditions: activity label of the modeling dataset, Table S5; cited from earlier work
In the case of CC(C)=CCC1=C(O)[C@@](O)(CC=C(C)C)C(=O)C(C(=O)CC(C)C)=C1O [compound 138], the activity is listed as 0.
For COc1cc(O)c(CC=C(C)C)c2c1C(=O)CC(c1ccc(O)cc1)O2 (stereo not shown) [compound 179], the activity is given as 1.
In the case of O=C1/C(=N\N=C\c2ccc(OCc3cn(Cc4ccccc4)nn3)cc2)c2ccccc2N1c1ccc(Br)cc1 [compound 145], the activity is listed as 0.
For COc1ccc(Br)cc1-c1nnc(/N=C(/CSc2nnc3c(n2)[nH]c2ccccc23)c2cccc([N+](=O)[O-])c2)s1 [compound 164], the activity is listed as 1.
In the case of COc1cc(/C=C/C(=O)O)ccc1O [compound 183], the activity is given as 1.
For COc1cc(-c2oc3cc(O)cc(O)c3c(=O)c2O)ccc1O [compound 161], the activity is listed as 1.
For O=[N+]([O-])c1cccc(/C(CSc2nnc3c(n2)[nH]c2ccccc23)=N\c2nnc(-c3cc(Cl)cc(Cl)c3O)s2)c1 [compound 180], the activity is listed as 1.
For COc1cc(Br)ccc1-c1nnc(/N=C(/CSc2nnc3c(n2)[nH]c2ccccc23)c2ccc(Br)cc2Br)s1 [compound 151], the activity is listed as 1.
In the case of O=C(O)CCCCCCCCCCCCCCCO [compound 160], the activity is listed as 1.
For O=[N+]([O-])c1ccccc1-c1nnc(/N=C(/CSc2nnc3c(n2)[nH]c2ccccc23)c2cccc([N+](=O)[O-])c2Br)s1 [compound 171], the activity is given as 1.
For Cc1ccc(Cn2cc(COc3ccc(/C=N/N=C4\C(=O)N(c5ccc(Br)cc5)c5ccccc54)cc3)nn2)cc1 [compound 147], the activity is listed as 0.

Same assay, conditions: activity label of the modeling dataset, sheet Table S5; 1 = active, 0 = inactive; cited from earlier work
In the case of CCC/C=N/N=C(/C)c1ccc([N+](=O)[O-])cc1 [compound 285], the activity is given as 1.
For Cc1cc2ncc(-c3ccccc3)nc2cc1C [compound 294], the activity is given as 1.
In the case of O=[N+]([O-])c1ccc(-c2cnc3ccccc3n2)cc1 [compound 286], the activity is given as 1.
For CC(C)=CCn1c(=O)oc2c(C(=O)/C=C/c3ccc(O)c(F)c3)cccc21 [compound 293], the activity is listed as 1.
In the case of COC(=O)Cn1c(=O)oc2c(C(=O)/C=C/c3ccc(O)c(F)c3)cccc21 [compound 284], the activity is listed as 1.
